Experimental data taken from patent US8846933B2, “N-link hydroxamic acid derivatives useful as antibacterial agents” (Pfizer Inc., priority 2009, dated 2014).

Assays:
Assay type in all cases: cell-based
[1] = test system: Escherichia coli EC-1: VOGEL, mouse virulent; assay: MIC determination (CLSI), strain EC-1; settings: Escherichia coli EC-1, VOGEL, mouse virulent; unit assumed
Method in brief: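 The mouse-virulent VOGEL isolate of E. coli, EC-1, served as test organism. Minimum inhibitory concentration was measured by CLSI dilution methodology (M7-A7; M100-S18 standards).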

[2] = test system: Acinetobacter baumanii/haemolyticus: Multidrug-resistant clinical isolate (AB-3167); assay: MIC determination (CLSI), strain AB-3167; settings: unit assumed
Method in brief: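 MIC measured by broth dilution per CLSI guidelines (M7-A7, M100-S18) against multidrug-resistant clinical isolate AB-3167 of Acinetobacter baumanii/haemolyticus.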

[3] = test system: Pseudomonas aeruginosa UI-18: Wild-type (PA-7); assay: MIC determination (CLSI), strain PA-7; settings: Pseudomonas aeruginosa UI-18, wild-type; unit assumed
Method in brief: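 MIC determined by broth dilution per CLSI M7-A7 guidelines with M100-S18 interpretive standards. Test organism: wild-type Pseudomonas aeruginosa UI-18, designated PA-7.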

SMILES	EC-1 (MIC) [1] [µg/mL]	AB-3167 (MIC) [2] [µg/mL]	PA-7 (MIC) [3] [µg/mL]
COc1ccc(-c2ccn(CC[C@](C)(C(=O)NO)S(C)(=O)=O)c(=O)c2)c(F)c1F [Example 44, (2R)-4-[4-(2,3-difluoro-4-methoxyphenyl)-2-oxopyridin-1(2H)-yl]-N-hydroxy-2-methyl-2-(methylsulfonyl)butanamide]	0.015	> 64	1
C[C@@](CCn1ccc(-c2cccc(Cl)c2F)cc1=O)(C(=O)NO)S(C)(=O)=O [Example 45, (2R)-4-[4-(3-chloro-2-fluorophenyl)-2-oxopyridin-1(2H)-yl]-N-hydroxy-2-methyl-2-(methylsulfonyl)butanamide]	0.25	> 64	0.5
C[C@@](CCn1ccc(-c2cccc(Cl)c2Cl)cc1=O)(C(=O)NO)S(C)(=O)=O [Example 46, (2R)-4-[4-(2,3-dichlorophenyl)-2-oxopyridin-1(2H)-yl]-N-hydroxy-2-methyl-2-(methylsulfonyl)butanamide]	0.25	> 64	0.5
C[C@@](CCn1ccc(-c2ccc(C3CCOCC3)cc2)cc1=O)(C(=O)NO)S(C)(=O)=O [Example 47, (2R)-N-hydroxy-2-methyl-2-(methylsulfonyl)-4-{2-oxo-4-[4-(tetrahydro-2H-pyran-4-yl)phenyl]pyridin-1(2H)-yl}butanamide]	0.5	> 64	2
COCCSc1ccc(-c2ccn(CC[C@](C)(C(=O)NO)S(C)(=O)=O)c(=O)c2)cc1 [Example 48, (2R)-N-hydroxy-4-[4-{4-[(2-methoxyethyl)thio]phenyl}-2-oxopyridin-1(2H)-yl]-2-methyl-2-(methylsulfonyl)butanamide]	0.25	> 64	1
C[C@@](CCn1ccc(-c2ccc(Cl)c(F)c2F)cc1=O)(C(=O)NO)S(C)(=O)=O [Example 49, (2R)-4-[4-(4-chloro-2,3-difluorophenyl)-2-oxopyridin-1(2H)-yl]-N-hydroxy-2-methyl-2-(methylsulfonyl)butanamide]	0.125	> 64	0.25
C[C@@](CCn1ccc(-c2ccc(F)c(F)c2F)cc1=O)(C(=O)NO)S(C)(=O)=O [Example 50, (2R)-N-hydroxy-2-methyl-2-(methylsulfonyl)-4-[2-oxo-4-(2,3,4-trifluorophenyl)pyridin-1(2H)-yl]butanamide]	0.5	64	0.5
CC(CCn1ccc(OCc2ccccc2)cc1=O)(C(=O)NO)S(C)(=O)=O (stereo not drawn) [Example 51, 4-[4-(Benzyloxy)-2-oxopyridin-1(2H)-yl]-N-hydroxy-2-methyl-2-(methylsulfonyl)butanamide]	16	> 64	16
Cc1c(-c2ccccc2)ccn(CCC(C)(C(=O)NO)S(C)(=O)=O)c1=O (stereo not drawn) [Example 52, N-Hydroxy-2-methyl-4-(3-methyl-2-oxo-4-phenylpyridin-1(2H)-yl)-2-(methylsulfonyl)butanamide]	2	> 64	4
CC(CCn1ccc(C2CCCCC2)cc1=O)(C(=O)NO)S(C)(=O)=O (stereo not drawn) [Example 53, 4-(4-Cyclohexyl-2-oxopyridin-1(2H)-yl)-N-hydroxy-2-methyl-2-(methylsulfonyl)butanamide]	16	> 64	8
CCC(CCn1ccc(-c2ccccc2)cc1=O)(C(=O)NO)S(C)(=O)=O (stereo not drawn) [Example 54, 2-Ethyl-N-hydroxy-2-(methylsulfonyl)-4-(2-oxo-4-phenylpyridin-1(2H)-yl)butanamide]	16	64	16
C[C@@](CCn1ccc(-c2ccccc2)c(F)c1=O)(C(=O)NO)S(C)(=O)=O [Example 55, (2R)-4-(3-fluoro-2-oxo-4-phenylpyridin-1(2H)-yl)-N-hydroxy-2-methyl-2-(methylsulfonyl)butanamide]	8	> 64	1
C[C@@](CCn1cc(F)c(-c2ccccc2)cc1=O)(C(=O)NO)S(C)(=O)=O [Example 56, (2R)-4-(5-fluoro-2-oxo-4-phenylpyridin-1(2H)-yl)-N-hydroxy-2-methyl-2-(methylsulfonyl)butanamide]	4	> 64	1
CCS(=O)(=O)C(C)(CCn1ccc(-c2ccccc2)cc1=O)C(=O)NO (stereo not drawn) [Example 57, 2-(ethylsulfonyl)-N-hydroxy-2-methyl-4-(2-oxo-4-phenylpyridin-1(2H)-yl)butanamide]	8	16	64
COc1cnn(-c2ccc(-c3ccn(CC[C@](C)(C(=O)NO)S(C)(=O)=O)c(=O)c3)cc2)n1 [Example 58, (2R)-N-hydroxy-4-{4-[4-(4-methoxy-2H-1,2,3-triazol-2-yl)phenyl]-2-oxopyridin-1(2H)-yl}-2-methyl-2-(methylsulfonyl)butanamide]	0.03	> 64	0.5
COc1ccc(COc2ccc(-c3ccn(CC[C@](C)(C(=O)NO)S(C)(=O)=O)c(=O)c3)cc2)cn1 [Example 59, (2R)-N-hydroxy-4-[4-{4-[(6-methoxypyridin-3-yl)methoxy]phenyl}-2-oxopyridin-1(2H)-yl]-2-methyl-2-(methylsulfonyl)butanamide]	0.25	> 64	1
C[C@@](CCn1ccc(-c2ccc(OC(F)(F)[C@H]3CC[C@H](O)CC3)cc2)cc1=O)(C(=O)NO)S(C)(=O)=O [Example 60, (2R)-4-[4-{4-[difluoro(trans-4-hydroxycyclohexyl)methoxy]phenyl}-2-oxopyridin-1(2H)-yl]-N-hydroxy-2-methyl-2-(methylsulfonyl)butanamide]	0.125	32	1
C[C@@](CCn1ccc(-c2ccc(N3CCC(CO)CC3)cc2)cc1=O)(C(=O)NO)S(C)(=O)=O [Example 61, (2R)-N-hydroxy-4-[4-{4-[4-(hydroxymethyl)piperidin-1-yl]phenyl}-2-oxopyridin-1(2H)-yl]-2-methyl-2-(methylsulfonyl)butanamide]	64	> 64	2
CO/N=C(\C)c1ccc(-c2ccn(CCC(C)(C(=O)NO)S(C)(=O)=O)c(=O)c2)cc1 (stereo not drawn) [Example 62, N-Hydroxy-4-[4-{4-[(1E)-N-methoxyethanimidoyl]phenyl}-2-oxopyridin-1(2H)-yl]-2-methyl-2-(methylsulfonyl)butanamide]	0.5	> 64	4
Cc1cc(-c2ccn(CC[C@](C)(C(=O)NO)S(C)(=O)=O)c(=O)c2)ccc1-c1cc(CO)no1 [Example 63, N-Hydroxy-4-[4-{4-[3-(hydroxymethyl)isoxazol-5-yl]-3-methylphenyl}-2-oxopyridin-1(2H)-yl]-2-methyl-2-(methylsulfonyl)butanamide]	2	> 64	4
C[C@@](CCn1ccc(N2CC(c3ccccc3)C2)cc1=O)(C(=O)NO)S(C)(=O)=O [Example 64, (2R)-N-Hydroxy-2-methyl-2-(methylsulfonyl)-4-[2-oxo-4-(3-phenylazetidin-1-yl)pyridin-1(2H)-yl]butanamide]	8	> 64	8
